Results published in patent publication US4146719A, “Piperazinyl derivatives of quinoline carboxylic acids” (priority 1977, dated 1979).
≈ marks a conversion by molar mass, not a printed value. Like-named read-outs stand apart in the source and are kept apart here.

Key:
Pr. vulgaris XK Denken = test: Antibacterial activity in vitro, M.I.C., agar dilution streak method; assay type: cell-based, Proteus vulgaris; conditions: Proteus vulgaris; Gram -; read-out: M.I.C.
Escherichia coli = test: Concentration ratio in serum to M.I.C. after oral administration of 50 mg/kg in rats; assay type: in vivo, Escherichia coli; rats; conditions: rat, in vivo, po, 50 mg/kg
[1] = test system: Mycobacterium phlei IFO 3142; test: Antibacterial activity in vitro, M.I.C., agar dilution streak method; assay type: cell-based; conditions: Mycolicibacterium phlei, IFO3142; Gram +; read-out: M.I.C.
[2] = test system: Haemophilus influenzae IID 986; test: as above; assay type: cell-based; conditions: Haemophilus influenzae, IID986; Gram -; read-out: M.I.C.
Ps. aeruginosa IFO 12689 = test: as above; assay type: cell-based, Pseudomonas aeruginosa; conditions: Pseudomonas aeruginosa, IFO12689; Gram -; read-out: M.I.C.
Shigella sonnei IID 969 = test: as above; assay type: cell-based; conditions: Shigella sonnei, IID969; Gram -
[3] = test system: Pseudomonas aeruginosa IID 1210; test: Preventive effect against systemic infection with Pseudomonas aeruginosa in mice; assay type: in vivo, Pseudomonas aeruginosa; mice (ddY, male); conditions: Pseudomonas aeruginosa, challenge 3.5 × 10^4 cells/mouse; for ED50: twice (immediately and 6 hours after inoculation), read-out: ED50 (95% confidence limit); for ED90: twice, read-out: ED90
Description: Systemic infection was produced by inoculating male mice (strain: ddY, 6 weeks old, body weight: 28-33g) in intraperitoneally with Pseudomonas aeruginosa IID 1210 suspended in 0.5 ml of Brain heart infusion broth (Eiken) containing 5% mucin. […] Each of these test materials was administered to the mice twice, immediately after and then 6 hours after the inoculation, and the therapeutic effect of each compounds was judged from the survival rate.
(1) Miller L. C. and M. L. Tainter: Estimation of the ED50 and its error by means of logarithmic-probit graph paper Proc. Soc. Exp. Biol. Med. 57 261-264 (1944)
(2) Litchfield J. T. and F. Wilcoxon: A simplified method of evaluating dose - effect J. Pharmacol. 92 99-113 (1948)

Ps. aeruginosa IID 1210 = test: Antibacterial activity in vitro, M.I.C., agar dilution streak method; assay type: cell-based, Pseudomonas aeruginosa; conditions: Pseudomonas aeruginosa, IID1210; Gram -; read-out: M.I.C.
[4] = test system: Diplococcus pneumoniae IID 552; test: as above; assay type: cell-based; conditions: Streptococcus pneumoniae, IID552; Gram +; read-out: M.I.C.
[5] = test system: Bacillus subtilis PCI 219; test: as above; assay type: cell-based; conditions: Bacillus subtilis, PCI219; Gram +; read-out: M.I.C.
Str. pyogenes S-8 = test: as above; assay type: cell-based, Streptococcus pyogenes; conditions: Streptococcus pyogenes, S8; Gram +; read-out: M.I.C.
[6] = test system: Streptococcus pyogenes IID 692; test: as above; assay type: cell-based; conditions: Streptococcus pyogenes, IID692; Gram +; read-out: M.I.C.
[7] = test system: Salmonella enteritidis IID 604; test: as above; assay type: cell-based; conditions: Salmonella enterica; Gram -; read-out: M.I.C.
Escherichia coli NIHJ = test: as above; assay type: cell-based; conditions: Escherichia coli
[8] = Biliary excretion in rats after a single oral administration of 50 mg/kg; conditions: rat, in vivo, po, 50 mg/kg
[9] = test system: Escherichia coli NIHJ JC-2; test: Influence of rat bile on antibacterial activity; assay type: cell-based; conditions: bile of rats
Description: Nutrient agar was heated and melted. […] The diameter of the inhibition zone was measured.

[10] = test system: Pseudomonas aeruginosa V-1; test: Antibacterial activity in vitro, M.I.C., agar dilution streak method; assay type: cell-based; conditions: Pseudomonas aeruginosa, V1; Gram -; read-out: M.I.C.
[11] = test system: Staphylococcus aureus 209P; test: as above; assay type: cell-based; conditions: Staphylococcus aureus, 209P; Gram +; read-out: M.I.C.
[12] = test system: Proteus vulgaris IFO 3167; test: as above; assay type: cell-based; conditions: Proteus vulgaris, IFO3167; Gram -; read-out: M.I.C.
[13] = test system: gram-positive and gram-negative bacteria including Pseudomonas aeruginosa; test: Antibacterial spectrum in vitro (summary in words); assay type: cell-based
E. coli ATCC 10536 = test: Antibacterial activity in vitro, M.I.C., agar dilution streak method; assay type: cell-based, Escherichia coli; conditions: Escherichia coli, ATCC10536
[14] = test system: Escherichia coli NIHJ JC-2; test: Preventive effect against ascending kidney infection in mice with Escherichia coli; assay type: in vivo, Escherichia coli; mice (ddY, female); conditions: Escherichia coli, NIHJJC2, 48 h, oral, 3 hours after inoculation, challenge 3.2 × 10^7 cells/mouse
Description: Ascending kidney infection was induced in female mice (strain: ddY, 6 weeks old, body weight: 22-26g), by instilling Escherlichia coli NIHJ JC-2 suspended in 0.04 ml of Tryptosoya broth (Nissan) into the urinary tract of mice anesthetized with sodium pentobarbital and by holding for 6 hours the mice in plastic tubes (diameter 25 mm) and clamping the outlet of urinary tract.
Each of these test material was orally administered 3 hours after inoculation. Mice were sacrificed 48 hours after inoculation. Kidneys were removed aseptically and bisected, and the two halves were pressed and streaked on agar plate containing Desoxycholate medium (Nissan). The therapeutic effect of each compound was evaluated from the absence of growth on the agar surface after 20 hours of incubation at 37° C.

Sta. aureus ATCC 14775 = test: Antibacterial activity in vitro, M.I.C., agar dilution streak method; assay type: cell-based, Staphylococcus aureus; conditions: Staphylococcus aureus, ATCC14775; Gram +; read-out: M.I.C.
[15] = test system: Corynebacterium pyogenes IID 548; test: as above; assay type: cell-based; conditions: Corynebacterium pyogenes, IID548; Gram +
My. smegmatis IFO 3083 = test: as above; assay type: cell-based; conditions: Mycolicibacterium smegmatis, IFO3083; Gram +; read-out: M.I.C.
[16] = test system: Klebsiella pneumoniae IFO 3512; test: as above; assay type: cell-based; conditions: Klebsiella pneumoniae, IFO3512
Ps. aeruginosa IID 1130 = test: as above; assay type: cell-based, Pseudomonas aeruginosa; conditions: Pseudomonas aeruginosa, IID1130; Gram -; read-out: M.I.C.
[17] = test system: Neisseria perflava IID 856; test: as above; assay type: cell-based; conditions: Neisseria perflava, IID856
Str. faecalis IID 682 = test: as above; assay type: cell-based; conditions: Enterococcus faecalis, IID682; Gram +

Row | Compound | MIC (Pr. vulgaris XK Denken) [µg/mL] | MIC [1] [µg/mL] | MIC [2] [µg/mL] | MIC (Ps. aeruginosa IFO 12689) [µg/mL] | MIC (Shigella sonnei IID 969) [µg/mL] | MIC (Ps. aeruginosa IID 1210) [µg/mL] | MIC [4] [µg/mL] | MIC [5] [µg/mL] | MIC (Str. pyogenes S-8) [µg/mL] | MIC [6] [µg/mL] | MIC [7] [µg/mL] | MIC (Escherichia coli NIHJ) [µg/mL] | MIC [10] [µg/mL] | MIC [11] [µg/mL] | MIC [12] [µg/mL] | MIC (E. coli ATCC 10536) [µg/mL] | MIC (Sta. aureus ATCC 14775) [µg/mL] | MIC [15] [µg/mL] | MIC (My. smegmatis IFO 3083) [µg/mL] | MIC (Ps. aeruginosa IID 1130) [µg/mL] | other results
1 | CCn1cc(C(=O)O)c(=O)c2cnc(N3CCNCC3)nc21 [Pipemidic acid] | 6.25 (≈ 20.6 µM) | 12.5 (≈ 41.2 µM) | 3.13 (≈ 10.3 µM) | 25 (≈ 82.4 µM) | 1.56 (≈ 5.14 µM) | 50 (≈ 165 µM) | > 100 | 6.25 (≈ 20.6 µM) | > 100 | > 100 | 12.5 (≈ 41.2 µM) | 1.56 (≈ 5.14 µM) | 12.5 (≈ 41.2 µM) | 25 (≈ 82.4 µM) | 3.13 (≈ 10.3 µM) | 1.56 (≈ 5.14 µM) | 100 (≈ 330 µM) | 100 | 50 (≈ 165 µM) | 25 (≈ 82.4 µM) | serum concentration / M.I.C. ratio (in words) (Escherichia coli): smaller than that of the compound (II); time for which serum levels were maintained (Escherichia coli): ≤ 2 h; ED50 ([3]; IID1210, oral): 400 mg/kg; ED90 ([3]; IID1210, oral): 1120 mg/kg; concentration at 3 h [8]: 27400 ± 2600 ng/mL; concentration at 6 h [8]: 22600 ± 1700 ng/mL; concentration at 24 h [8]: 10200 ± 1200 ng/mL; concentration at 27 h [8]: < 2000 ng/mL; dose excreted at 3 h [8]: 0.6 ± 0.07%; dose excreted at 6 h [8]: 1.01 ± 0.1%; dose excreted at 24 h [8]: 1.97 ± 0.09%; dose excreted at 27 h [8]: 1.97 ± 0.09%; antibacterial activity in presence of bile (in words) [9]: not influenced by bile of rats; antibacterial activity (in words) [13]: inactive on many strains of gram-positive bacteria and many Pseudomonas aeruginosa strains; ED50 ([14]; read-out: ED50 (95% confidence limit)): 74 mg/kg; ED90 ([14]; read-out: ED90): 235 mg/kg; MIC [16]: 1.56 µg/mL (≈ 5.14 µM); MIC [17]: 1.56 µg/mL (≈ 5.14 µM)
2 | CC1(C)S[C@@H]2[C@H](NC(=O)C(C(=O)O)c3ccccc3)C(=O)N2[C@H]1C(=O)O (stereo partly drawn) [Carbenicillin] | 0.39 (≈ 1.03 µM) | > 200 | 0.39 (≈ 1.03 µM) | 100 (≈ 264 µM) | 1.56 (≈ 4.12 µM) | 100 (≈ 264 µM) | 0.39 (≈ 1.03 µM) | 0.39 (≈ 1.03 µM) | 0.1 (≈ 0.264 µM) | 0.1 (≈ 0.264 µM) | 12.5 (≈ 33 µM) | 1.56 (≈ 4.12 µM) | 12.5 (≈ 33 µM) | 0.39 (≈ 1.03 µM) | 6.25 (≈ 16.5 µM) | 1.56 (≈ 4.12 µM) | 6.25 (≈ 16.5 µM) | 0.2 | 6.25 (≈ 16.5 µM) | 200 (≈ 529 µM) | ED50 ([3]; IID1210, sc, subcutaneous): 800 mg/kg; ED90 ([3]; IID1210, subcutaneous): 1430 mg/kg; MIC (Str. faecalis IID 682): 100 µg/mL; MIC ([16]; Gram -, read-out: M.I.C.): > 200 µg/mL; MIC [17]: 1.56 µg/mL (≈ 4.12 µM)
